Experimental data from patent US20260262643A1, “HERBICIDAL BENZOXAZINES” (FMC CORPORATION, priority 2022, published 2026).

Key:
sedge, umbrella = assay: Test D flooded paddy test; type: in vivo, Cyperus difformis; details: 250 g ai/ha, applied to paddy water, visual rating after 13 to 14 days, scale 0 to 100 (0 no effect, 100 complete control)
How it was run: (§1)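 Plants grown to the 2-leaf stage; pots flooded to 3 cm above soil at treatment and held at that depth throughout. Test compounds applied directly to the paddy water. After 13 to 14 days in a greenhouse, response was rated visually versus controls on a 0 (no effect) to 100 (complete control) scale.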

oat, wild [1] = assay: Test C postemergence; type: in vivo, Avena fatua; details: 10 days
How it was run: (§2)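 Visual injury ratings on a 0–100 scale (100 = complete control) were made against untreated controls 10 days after treatment in the greenhouse. Compounds, formulated with surfactant in non-phytotoxic solvent, were sprayed on soil preemergence or onto one- to two-leaf plants 2–10 cm tall postemergence.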

barnyardgrass [2] = assay: Test C postemergence; type: in vivo, Echinochloa crusgalli; details: 10 days
How it was run: as §2

rice = assay: Test D flooded paddy test; type: in vivo, Oryza sativa; details: 250 g ai/ha, applied to paddy water, visual rating after 13 to 14 days, scale 0 to 100 (0 no effect, 100 complete control)
How it was run: as §1

horseweed = assay: Test C postemergence; type: in vivo, Erigeron canadensis; details: 10 days
How it was run: as §2

wheat [3] = assay: Test C postemergence; type: in vivo, Triticum aestivum; details: 10 days
How it was run: as §2

corn [4] = assay: Test C postemergence; type: in vivo, Zea mays; details: 10 days
How it was run: as §2

galium = assay: Test C postemergence; type: in vivo, Galium aparine; details: 10 days
How it was run: as §2

barnyardgrass [5] = assay: Test C preemergence; type: in vivo, Echinochloa crusgalli; details: 0 to 100 scale (0 no effect, 100 complete control); for Plant response rating, Barnyardgrass: Preemergence, 500 g ai/ha, visual rating after 10 days; for Barnyardgrass plant response rating: preemergence, 125 g ai/ha
How it was run: as §2

ducksalad = assay: Test D flooded paddy test; type: in vivo, Heteranthera limosa; details: 250 g ai/ha, applied to paddy water, visual rating after 13 to 14 days, scale 0 to 100 (0 no effect, 100 complete control)
How it was run: as §1

green foxtail [6] = assay: Test C postemergence; type: in vivo, Setaria viridis; details: 10 days
How it was run: as §2

soybean [7] = assay: Test C preemergence; type: in vivo, Glycine max; details: 0 to 100 scale (0 no effect, 100 complete control); for Plant response rating, Soybean: Preemergence, 500 g ai/ha, visual rating after 10 days; for Soybean plant response rating: Test C, preemergence, 125 g ai/ha
How it was run: as §2

kochia [8] = assay: Test C preemergence; type: in vivo, Bassia scoparia; details: 0 to 100 scale (0 no effect, 100 complete control); for Plant response rating, Kochia: Preemergence, 500 g ai/ha, visual rating after 10 days; for Kochia plant response rating: Test C, preemergence, 125 g ai/ha
How it was run: as §2

ryegrass, Italian [9] = assay: Test C postemergence; type: in vivo, Lolium multiflorum; details: 10 days
How it was run: as §2

ryegrass, Italian [10] = assay: Test C preemergence; type: in vivo, Lolium multiflorum; details: 0 to 100 scale (0 no effect, 100 complete control); for Plant response rating, Ryegrass, Italian: Preemergence, 500 g ai/ha, visual rating after 10 days; for Ryegrass, Italian plant response rating: Test C, preemergence, 125 g ai/ha
How it was run: as §2

corn [11] = assay: Test C preemergence; type: in vivo, Zea mays; details: 0 to 100 scale (0 no effect, 100 complete control); for Plant response rating, Corn: Preemergence, 500 g ai/ha, visual rating after 10 days; for Corn plant response rating: Test C, preemergence, 125 g ai/ha
How it was run: as §2

oat, wild [12] = assay: Test C preemergence; type: in vivo, Avena fatua; details: 0 to 100 scale (0 no effect, 100 complete control); for Plant response rating, Oat, Wild: Preemergence, 500 g ai/ha, visual rating after 10 days; for Oat, Wild plant response rating: Test C, preemergence, 125 g ai/ha
How it was run: as §2

kochia [13] = assay: Test C postemergence; type: in vivo, Bassia scoparia; details: 10 days
How it was run: as §2

pigweed, palmer [14] = assay: Test C preemergence; type: in vivo, Amaranthus palmeri; details: 0 to 100 scale (0 no effect, 100 complete control); for Plant response rating, Pigweed, Palmer: Preemergence, 500 g ai/ha, visual rating after 10 days; for Pigweed, Palmer plant response rating: Test C, preemergence, 125 g ai/ha
How it was run: as §2

pigweed, palmer [15] = assay: Test C postemergence; type: in vivo, Amaranthus palmeri; details: 10 days
How it was run: as §2

ragweed [16] = assay: Test C postemergence; type: in vivo, Ambrosia artemisiifolia; details: 10 days
How it was run: as §2

wheat [17] = assay: Test C preemergence; type: in vivo, Triticum aestivum; details: 0 to 100 scale (0 no effect, 100 complete control); for Plant response rating, Wheat: Preemergence, 500 g ai/ha, visual rating after 10 days; for Wheat plant response rating: Test C, preemergence, 125 g ai/ha
How it was run: as §2

ragweed [18] = assay: Test C preemergence; type: in vivo, Ambrosia artemisiifolia; details: 0 to 100 scale (0 no effect, 100 complete control); for Plant response rating, Ragweed: Preemergence, 500 g ai/ha, visual rating after 10 days; for Ragweed plant response rating: Test C, preemergence, 125 g ai/ha
How it was run: as §2

green foxtail [19] = assay: Test C preemergence; type: in vivo, Setaria viridis; details: 0 to 100 scale (0 no effect, 100 complete control); for Plant response rating, Foxtail, Green: Preemergence, 500 g ai/ha, visual rating after 10 days; for Foxtail, Green plant response rating: Test C, preemergence, 125 g ai/ha
How it was run: as §2

blackgrass [20] = assay: Test C preemergence; type: in vivo, Alopecurus myosuroides; details: 0 to 100 scale (0 no effect, 100 complete control); for Plant response rating, Blackgrass: Preemergence, 500 g ai/ha, visual rating after 10 days; for Blackgrass plant response rating: Test C, preemergence, 125 g ai/ha
How it was run: as §2

blackgrass [21] = assay: Test C postemergence; type: in vivo, Alopecurus myosuroides; details: 10 days
How it was run: as §2

barnyardgrass [22] = assay: Test D flooded paddy test; type: in vivo, Echinochloa crus-galli; details: 250 g ai/ha, applied to paddy water, visual rating after 13 to 14 days, scale 0 to 100 (0 no effect, 100 complete control)
How it was run: as §1

soybean [23] = assay: Test C postemergence; type: in vivo, Glycine max; details: 10 days
How it was run: as §2

[24] = 125 g ai/ha, postemergence, 0 to 100 scale, 0 no effect, 100 complete control
[25] = Postemergence, 500 g ai/ha, visual 0 to 100 scale (0 no effect, 100 complete control)

Compound: COc1ccc(-n2cncn2)cc1C(=O)N1C[C@H](C)Oc2ccccc21 [Compound 228]
- Plant response rating, Sedge, Umbrella (Flood) (sedge, umbrella): 95
- Plant response rating, Oat, Wild (oat, wild [1]; [24]): 30
- Plant response rating, Oat, Wild (oat, wild [1]; [25]): 80
- Plant response rating, Barnyardgrass (barnyardgrass [2]; [24]): 60
- Plant response rating, Barnyardgrass (barnyardgrass [2]; [25]): 90
- Plant response rating, Rice (Flood) (rice): 25
- Plant response rating, Horseweed (horseweed; [24]): 10
- Plant response rating, Horseweed (horseweed; [25]): 30
- Plant response rating, Wheat (wheat [3]; [24]): 50
- Plant response rating, Wheat (wheat [3]; [25]): 90
- Plant response rating, Corn (corn [4]; [24]): 40
- Plant response rating, Corn (corn [4]; [25]): 80
- Plant response rating, Galium (galium; [24]): 100
- Plant response rating, Galium (galium; [25]): 100
- Plant response rating, Barnyardgrass (barnyardgrass [5]): 100
- Barnyardgrass plant response rating (barnyardgrass [5]; Test C): 90
- Plant response rating, Ducksalad (Flood) (ducksalad): 80
- Plant response rating, Foxtail, Green (green foxtail [6]; [24]): 30
- Plant response rating, Foxtail, Green (green foxtail [6]; [25]): 90
- Plant response rating, Soybean (soybean [7]): 90
- Soybean plant response rating (soybean [7]): 70
- Plant response rating, Kochia (kochia [8]): 60
- Kochia plant response rating (kochia [8]): 0
- Plant response rating, Ryegrass, Italian (ryegrass, Italian [9]; [24]): 100
- Plant response rating, Ryegrass, Italian (ryegrass, Italian [9]; [25]): 100
- Plant response rating, Ryegrass, Italian (ryegrass, Italian [10]): 90
- Ryegrass, Italian plant response rating (ryegrass, Italian [10]): 90
- Plant response rating, Corn (corn [11]): 60
- Corn plant response rating (corn [11]): 10
- Plant response rating, Oat, Wild (oat, wild [12]): 90
- Oat, Wild plant response rating (oat, wild [12]): 40
- Plant response rating, Kochia (kochia [13]; [24]): 50
- Plant response rating, Kochia (kochia [13]; [25]): 70
- Plant response rating, Pigweed, Palmer (pigweed, palmer [14]): 100
- Pigweed, Palmer plant response rating (pigweed, palmer [14]): 100
- Plant response rating, Pigweed, Palmer (pigweed, palmer [15]; [24]): 70
- Plant response rating, Pigweed, Palmer (pigweed, palmer [15]; [25]): 90
- Plant response rating, Ragweed (ragweed [16]; [24]): 10
- Plant response rating, Ragweed (ragweed [16]; [25]): 30
- Plant response rating, Wheat (wheat [17]): 30
- Wheat plant response rating (wheat [17]): 20
- Plant response rating, Ragweed (ragweed [18]): 50
- Ragweed plant response rating (ragweed [18]): 40
- Plant response rating, Foxtail, Green (green foxtail [19]): 100
- Foxtail, Green plant response rating (green foxtail [19]): 100
- Plant response rating, Blackgrass (blackgrass [20]): 90
- Blackgrass plant response rating (blackgrass [20]): 80
- Plant response rating, Blackgrass (blackgrass [21]; [24]): 80
- Plant response rating, Blackgrass (blackgrass [21]; [25]): 90
- Plant response rating, Barnyardgrass (Flood) (barnyardgrass [22]): 15
- Plant response rating, Soybean (soybean [23]; [24]): 100
- Plant response rating, Soybean (soybean [23]; [25]): 100

Compound: CCc1c(F)cc(-n2cnc(C(C)C)n2)cc1C(=O)N1C[C@H](C)Oc2c(Cl)cccc21 [Compound 152]
- Plant response rating, Sedge, Umbrella (Flood) (sedge, umbrella): 0
- Plant response rating, Oat, Wild (oat, wild [1]; [24]): 0
- Plant response rating, Oat, Wild (oat, wild [1]; [25]): 30
- Plant response rating, Barnyardgrass (barnyardgrass [2]; [24]): 60
- Plant response rating, Barnyardgrass (barnyardgrass [2]; [25]): 90
- Plant response rating, Rice (Flood) (rice): 0
- Plant response rating, Horseweed (horseweed; [24]): 0
- Plant response rating, Horseweed (horseweed; [25]): 0
- Plant response rating, Wheat (wheat [3]; [24]): 20
- Plant response rating, Wheat (wheat [3]; [25]): 20
- Plant response rating, Corn (corn [4]; [24]): 40
- Plant response rating, Corn (corn [4]; [25]): 70
- Plant response rating, Galium (galium; [24]): 100
- Plant response rating, Galium (galium; [25]): 100
- Barnyardgrass plant response rating (barnyardgrass [5]): 70
- Plant response rating, Barnyardgrass (barnyardgrass [5]): 90
- Plant response rating, Ducksalad (Flood) (ducksalad): 0
- Plant response rating, Foxtail, Green (green foxtail [6]; [24]): 40
- Plant response rating, Foxtail, Green (green foxtail [6]; [25]): 90
- Plant response rating, Soybean (soybean [7]): 70
- Soybean plant response rating (soybean [7]): 50
- Plant response rating, Kochia (kochia [8]): 90
- Kochia plant response rating (kochia [8]): 40
- Plant response rating, Ryegrass, Italian (ryegrass, Italian [9]; [24]): 30
- Plant response rating, Ryegrass, Italian (ryegrass, Italian [9]; [25]): 60
- Plant response rating, Ryegrass, Italian (ryegrass, Italian [10]): 90
- Ryegrass, Italian plant response rating (ryegrass, Italian [10]): 70
- Plant response rating, Corn (corn [11]): 50
- Corn plant response rating (corn [11]): 30
- Plant response rating, Oat, Wild (oat, wild [12]): 70
- Oat, Wild plant response rating (oat, wild [12]): 60
- Plant response rating, Kochia (kochia [13]; [24]): 80
- Plant response rating, Kochia (kochia [13]; [25]): 80
- Plant response rating, Pigweed, Palmer (pigweed, palmer [14]): 90
- Pigweed, Palmer plant response rating (pigweed, palmer [14]): 90
- Plant response rating, Pigweed, Palmer (pigweed, palmer [15]; [24]): 80
- Plant response rating, Pigweed, Palmer (pigweed, palmer [15]; [25]): 90
- Plant response rating, Ragweed (ragweed [16]; [24]): 40
- Plant response rating, Ragweed (ragweed [16]; [25]): 60
- Plant response rating, Wheat (wheat [17]): 40
- Wheat plant response rating (wheat [17]): 20
- Plant response rating, Ragweed (ragweed [18]): 0
- Ragweed plant response rating (ragweed [18]): 0
- Plant response rating, Foxtail, Green (green foxtail [19]): 100
- Foxtail, Green plant response rating (green foxtail [19]): 100
- Plant response rating, Blackgrass (blackgrass [20]): 60
- Blackgrass plant response rating (blackgrass [20]): 50
- Plant response rating, Blackgrass (blackgrass [21]; [24]): 50
- Plant response rating, Blackgrass (blackgrass [21]; [25]): 70
- Plant response rating, Barnyardgrass (Flood) (barnyardgrass [22]): 0
- Plant response rating, Soybean (soybean [23]; [24]): 100
- Plant response rating, Soybean (soybean [23]; [25]): 100
